Patent publication US11191765B2, “Heterocyclic compounds for the inhibition of PASK” (BioEnergenix LLC, priority 2012, dated 2021)

Target: PASK (Invitrogen) (Homo sapiens (Human), UniProt Q96RG2)
Experiment: PAS Kinase FRET Assay
Format: biochemical
Conditions: TR-FRET (665 nm/615 nm), Ulight-peptide substrate, 2 hours at 25° C.; read-out: IC50 Kinase Domain
Description: The aim of the FRET assay is to determine the inhibition potential of test compounds on targeted kinase. This assay platform provides a homogenous screening method for measuring kinase activity by quantitating the amount of phospho-substrate in solution following a kinase reaction.
In the presence of kinase and ATP, the Ulight-peptide is phosphorylated and captured by an anti-phospho-substrate antibody, which brings the Eu chelate donor and Ulight acceptor dyes into close proximity. Upon excitation at 340 nm, the Eu chelate transfers its energy to the Ulight dye, resulting in a fluorescent light emission at 665 nm.
Titration of kinase at 1 mM ATP was achieved via the following protocol. After making serial three-fold dilutions of PASK (Invitrogen) in reaction buffer across the plate; 5 μl of kinase dilution and 5 μl substrate/ATP mix were added to the wells of the white Optiplate-384 (PerkinElmer). The contents of the plate were and incubated at RT for 1 h. The reaction was stopped by adding 5 μl of stop solution to each test well followed by mixing and incubation at RT for 10 minutes. 5 μl of detection mix (detection antibody diluted in detection buffer) was added; the contents of the plate were mixed and then incubated in the dark for 1 hour at RT. The signal was recorded at TR-FRET mode (665 nm/615 nm). The results were graphed to calculate the EC50.
Titration of ATP at the EC50 concentration of kinase to determine ATP Km,app. was performed using the following method. After making serial dilutions of ATP (Invitrogen), 5 μl of ATP dilution and 5 μl substrate/kinase mix were added to the wells of the white Optiplate-384 (PerkinElmer). The contents of the plate were and incubated at RT for 1 h. The reaction was stopped by adding 5 μl of stop solution to each test well followed by mixing and incubation at RT for 10 minutes. 5 μl of detection mix (detection antibody diluted in detection buffer) was added; the contents of the plate were mixed and then incubated in the dark for 1 hour at RT. The signal was recorded at TR-FRET mode (665 nm/615 nm). The results were graphed to calculate the EC50 as the ATP Km,app.
Compound screening was done via the following method. 10 mM stock solution of test compound in DMSO was prepared by dissolving test compound in DMSO at RT for 1 hour, and then sonicating at 100% output for 8 minutes. If compound is not soluble under this condition, it was diluted to 3 mM. Kinase reaction buffer was prepared containing 10 mM MgCl2, 50 mM HEPES, 1 mM EGTA, 0.01% TWEEN-20, 2 mM DTT. Serial dilutions of the test compounds were prepared at 4×final assay concentrations using Freedom EVO200® dispensing system as follows: 12×10^−5 M, 4×10^−5 M, 1.33×10^−5 M, 4.44×10^−6 M, 1.48×10^−6 M, 4.92×10^−7 M, 1.65×10^−7 M, 5.48×10^−7 M, 1.82×10^−8 M, 6.09×10^−9, 2.03×10^−9 M. Test compounds (2.5 μl at 4×the final assay concentration) was added to wells using Freedom EVO200® dispensing system. As a positive control, 2.5 μl of positive compound was added to assay wells, and 2.5 μl of DMSO to assay wells as vehicle control. Kinase solution was prepared in reaction buffer at 2×final assay concentration. Kinase solution (5 μl) was added to each well of the assay plate. The substrate and ATP solution was prepared in kinase reaction buffer at 4×final assay concentration. The kinase reaction was started by adding 2.5 μl of substrate+ATP mix solution to each well of the assay plate. The plate is mixed on a plate shaker; then covered and allowed to react for 2 hours in the dark at 25° C. without shaking. The reaction was stopped by adding 5 μl of stop solution to each test well followed by mixing and incubation at RT for 10 minutes in the dark. 5 μl of detection mix (detection antibody diluted in detection buffer) was added; the contents of the plate were mixed and then incubated in the dark for 1 hour at RT. The signal was recorded at TR-FRET mode (665 nm/615 nm).

PASK (Invitrogen), sequence (Q96RG2 999-1251): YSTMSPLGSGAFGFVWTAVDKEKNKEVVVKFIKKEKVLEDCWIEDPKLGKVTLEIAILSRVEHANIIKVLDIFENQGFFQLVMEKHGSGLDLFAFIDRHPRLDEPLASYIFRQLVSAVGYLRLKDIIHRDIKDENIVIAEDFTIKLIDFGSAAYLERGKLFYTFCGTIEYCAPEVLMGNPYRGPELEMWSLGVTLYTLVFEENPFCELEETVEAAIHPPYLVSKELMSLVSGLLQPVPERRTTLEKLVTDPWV

SMILES | IC50 [µM]
O=c1cc(-c2ccc3[nH]nnc3c2)[nH]c2nc(-c3ccc(F)cc3)nn12 [Example 40, 5-(1H-Benzo[d][1,2,3]triazol-5-yl)-2-(4-fluorophenyl)-[1,2,4]triazolo[1,5-a]pyrimidin-7(4H)-one] | ≤ 10
Cc1nc2[nH]c(-c3ccc4[nH]nnc4c3)cc(=O)n2n1 [Example 43, 5-(1H-Benzo[d][1,2,3]triazol-5-yl)-2-methyl-[1,2,4]triazolo[1,5-a]pyrimidin-7(4H)-one] | ≤ 10
O=c1cc(-c2ccc3[nH]nnc3c2)[nH]c2nc(-c3ccc(Cl)cc3)nn12 [Example 39, 5-(1H-Benzo[d][1,2,3]triazol-5-yl)-2-(4-chlorophenyl)-[1,2,4]triazolo[1,5-a]pyrimidin-7(4H)-one] | ≤ 10
NC(=O)c1nc2[nH]c(-c3ccc4nn[nH]c4c3)cc(=O)n2n1 [Example 24, 5-(1H-benzo[d][1,2,3]triazol-6-yl)-7-oxo-4,7-dihydro-[1,2,4]triazolo[1,5-a]pyrimidine-2-carboxamide] | ≤ 10
Cc1nc2[nH]c(-c3ccc4c(c3)OCCO4)cc(=O)n2n1 [Example 16, 5-(2,3-Dihydrobenzo[b][1,4]dioxin-6-yl)-2-methyl-[1,2,4]triazolo[1,5-a]pyrimidin-7(4H)-one] | ≤ 10
O=c1cc(-c2ccc3c(c2)OCO3)[nH]c2nc(-c3ccccn3)nn12 [Example 29, 5-(Benzo[d][1,3]dioxol-5-yl)-2-(pyridin-2-yl)-[1,2,4]triazolo[1,5-a]pyrimidin-7(4H)-one] | ≤ 10
O=c1cc(-c2ccc3[nH]nnc3c2)[nH]c2nc(-c3ccccn3)nn12 [Example 2, 5-(1H-Benzo[d][1,2,3]triazol-5-yl)-2-(pyridin-2-yl)-[1,2,4]triazolo[1,5-a]pyrimidin-7(4H)-one] | ≤ 10
O=c1cc(-c2ccc3[nH]ncc3c2)[nH]c2nc(-c3cccc(Cl)c3)nn12 [Example 12, 2-(3-Chlorophenyl)-5-(1H-indazol-5-yl)-[1,2,4]triazolo[1,5-a]pyrimidin-7(4H)-one] | ≤ 10
O=c1cc(-c2ccc3nn[nH]c3c2)[nH]c2nc(-c3ccccc3Cl)nn12 [Example 22, 5-(1H-Benzo[d][1,2,3]triazol-6-yl)-2-(2-chlorophenyl)-[1,2,4]triazolo[1,5-a]pyrimidin-7(4H)-one] | ≤ 10
CCc1nc2[nH]c(-c3ccc4[nH]nnc4c3)cc(=O)n2n1 [Example 6, 5-(1H-Benzo[d][1,2,3]triazol-5-yl)-2-ethyl-[1,2,4]triazolo[1,5-a]pyrimidin-7(4H)-one] | ≤ 10
O=c1cc(-c2ccc3c(c2)OCCO3)[nH]c2nc(-c3ccccn3)nn12 [Example 28, 5-(2,3-Dihydrobenzo[b][1,4]dioxin-6-yl)-2-(pyridin-2-yl)-[1,2,4]triazolo[1,5-a]pyrimidin-7(4H)-one] | ≤ 10
O=c1cc(-c2ccc3[nH]nnc3c2)[nH]c2nc(-c3cccc(Cl)c3)nn12 [Example 13, 5-(1H-Benzo[d][1,2,3]triazol-5-yl)-2-(3-chlorophenyl)-[1,2,4]triazolo[1,5-a]pyrimidin-7(4H)-one] | ≤ 10
Cc1nc2[nH]c(-c3ccc4[nH]ncc4c3)cc(=O)n2n1 [Example 4, 5-(1H-indazol-5-yl)-2-methyl-[1,2,4]triazolo[1,5-a]pyrimidin-7(4H)-one] | ≤ 10
CNC(=O)c1nc2[nH]c(-c3ccc4[nH]nnc4c3)cc(=O)n2n1 [Example 7, 5-(1H-Benzo[d][1,2,3]triazol-5-yl)-N-methyl-7-oxo-4,7-dihydro-[1,2,4]triazolo[1,5-a]pyrimidine-2-carboxamide] | ≤ 10
O=c1cc(-c2ccc3c(c2)OCCO3)[nH]c2ncnn12 [Example 17, 5-(2,3-Dihydrobenzo[b][1,4]dioxin-6-yl)-[1,2,4]triazolo[1,5-a]pyrimidin-7(4H)-one] | ≤ 10

Results, then the compound that gave them:

IC50 [µM] | SMILES
≤ 10 | COc1ccc(-c2cc(=O)n3nc(Cc4ccccc4)nc3[nH]2)cc1 [Example 19, 2-Benzyl-5-(4-methoxyphenyl)-[1,2,4]triazolo[1,5-a]pyrimidin-7(4H)-one]
≤ 10 | O=c1cc(-c2ccc3c(c2)OCO3)[nH]c2nc(Cc3ccccc3)nn12 [Example 1, 5-(Benzo[d][1,3]dioxol-5-yl)-2-benzyl-[1,2,4]triazolo[1,5-a]pyrimidin-7(4H)-one]
≤ 10 | O=c1cc(-c2ccc3[nH]ncc3c2)[nH]c2nc(-c3ccc(Cl)cc3)nn12 [Example 44, 2-(4-Chlorophenyl)-5-(1H-indazol-5-yl)-[1,2,4]triazolo[1,5-a]pyrimidin-7(4H)-one]
≤ 10 | Cc1ccccc1-c1nc2[nH]c(-c3ccc4nn[nH]c4c3)cc(=O)n2n1 [Example 23, 5-(1H-benzo[d][1,2,3]triazol-6-yl)-2-o-tolyl-[1,2,4]triazolo[1,5-a]pyrimidin-7(4H)-one]
≤ 10 | O=c1cc(-c2ccc3[nH]nnc3c2)[nH]c2nc(Cc3ccccc3)nn12 [Example 45, 5-(1H-Benzo[d][1,2,3]triazol-5-yl)-2-benzyl-[1,2,4]triazolo[1,5-a]pyrimidin-7(4H)-one]
≤ 10 | CCn1ncc2cc(-c3cc(=O)n4nc(-c5ccc(Cl)cc5)nc4[nH]3)ccc21 [Example 42, 2-(4-Chlorophenyl)-5-(1-ethyl-1H-indazol-5-yl)-[1,2,4]triazolo[1,5-a]pyrimidin-7(4H)-one]
≤ 10 | COc1ccc(-c2cc(=O)n3ncnc3[nH]2)cc1 [Example 26, 5-(4-Methoxyphenyl)-[1,2,4]triazolo[1,5-a]pyrimidin-7(4H)-one]
≤ 10 | CCn1ncc2cc(-c3cc(=O)n4nc(-c5ccccc5Cl)nc4[nH]3)ccc21 [Example 25, 2-(2-chlorophenyl)-5-(1-ethyl-1H-indazol-5-yl)-[1,2,4]triazolo[1,5-a]pyrimidin-7(4H)-one]
≤ 10 | CCc1nc2[nH]c(-c3ccc4[nH]ncc4c3)cc(=O)n2n1 [Example 5, 2-Ethyl-5-(1H-indazol-5-yl)-[1,2,4]triazolo[1,5-a]pyrimidin-7(4H)-one]
≤ 10 | CCn1ncc2cc(-c3cc(=O)n4nc(-c5ccc(F)cc5)nc4[nH]3)ccc21 [Example 21, 5-(1-Ethyl-1H-indazol-5-yl)-2-(4-fluorophenyl)-[1,2,4]triazolo[1,5-a]pyrimidin-7(4H)-one]
≤ 10 | COc1ccc(-c2cc(=O)n3nc(C)nc3[nH]2)cc1 [Example 27, 5-(4-Methoxyphenyl)-2-methyl-[1,2,4]triazolo[1,5-a]pyrimidin-7(4H)-one]
≤ 10 | O=c1cc(-c2ccc3[nH]ncc3c2)[nH]c2nc(-c3ccc(F)cc3)nn12 [Example 20, 2-(4-Fluorophenyl)-5-(1H-indazol-5-yl)-[1,2,4]triazolo[1,5-a]pyrimidin-7(4H)-one]
≤ 10 | O=c1cc(-c2ccc3[nH]nnc3c2)[nH]c2nc(-c3ccccc3)nn12 [Example 41, 5-(1H-Benzo[d][1,2,3]triazol-5-yl)-2-phenyl-[1,2,4]triazolo[1,5-a]pyrimidin-7(4H)-one]
≤ 10 | O=c1cc(-c2ccc3c(c2)OCCO3)[nH]c2nc(Cc3ccccc3)nn12 [Example 18, 2-Benzyl-5-(2,3-dihydrobenzo[b][1,4]dioxin-6-yl)-[1,2,4]triazolo[1,5-a]pyrimidin-7(4H)-one]
≤ 10 | O=c1cc(-c2ccc3[nH]ncc3c2)[nH]c2nc(-c3ccccn3)nn12 [Example 3, 5-(1H-Indazol-5-yl)-2-(pyridin-2-yl)-[1,2,4]triazolo[1,5-a]pyrimidin-7(4H)-one]
